pIC50: −log10 of the molar value.
Molecular target: T1, Histone-lysine N-methyltransferase SETD7 (Homo sapiens, UniProt Q8WTS6)
T1 sequence (Q8WTS6 whole entry): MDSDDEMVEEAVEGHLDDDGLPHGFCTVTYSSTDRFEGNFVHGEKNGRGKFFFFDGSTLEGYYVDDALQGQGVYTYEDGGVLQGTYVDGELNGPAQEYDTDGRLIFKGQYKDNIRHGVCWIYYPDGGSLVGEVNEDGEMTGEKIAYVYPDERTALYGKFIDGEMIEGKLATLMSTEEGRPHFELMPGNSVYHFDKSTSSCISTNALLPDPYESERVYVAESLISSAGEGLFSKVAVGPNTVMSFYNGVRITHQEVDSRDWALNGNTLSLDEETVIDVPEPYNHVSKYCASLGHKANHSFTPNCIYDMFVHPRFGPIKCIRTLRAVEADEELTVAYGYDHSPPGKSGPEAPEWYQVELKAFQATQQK
Assay: Inhibition of wildtype full length human SETD7 (1 to 366 residues) expressed in Escherichia coli BL21 (DE3) V2R-pRARE using biotinylated H3 (1-25) peptide as substrate incubated for 1 hrs in presence of 3H-SAM by radioactivity based assay

pIC50: 6.00
Structure (SMILES): O=C([C@H](Cc1cccc(C(F)(F)F)c1)NS(=O)(=O)c1cc(F)c2c(c1)CCNC2)N1CCCC1

Source: ChEMBL document CHEMBL5705898 (Proc Natl Acad Sci U S A, 2014)
